According to US20150025105A1, “INDOLIZINE DERIVATIVES” (priority 2012, published 2015):
Read-outs that look alike come from different tables or passages of the source.

Columns and labels:
Type in all cases: biochemical
human COX-2 = target: T1, human COX-2 (Homo sapiens, UniProt P35354); test: Cyclooxygenase (COX) inhibition assay, COX-2 (enzyme immunoassay); conditions: Table 2
T1 construct: purchased Cayman Chemical
T1 sequence (P35354 18-604): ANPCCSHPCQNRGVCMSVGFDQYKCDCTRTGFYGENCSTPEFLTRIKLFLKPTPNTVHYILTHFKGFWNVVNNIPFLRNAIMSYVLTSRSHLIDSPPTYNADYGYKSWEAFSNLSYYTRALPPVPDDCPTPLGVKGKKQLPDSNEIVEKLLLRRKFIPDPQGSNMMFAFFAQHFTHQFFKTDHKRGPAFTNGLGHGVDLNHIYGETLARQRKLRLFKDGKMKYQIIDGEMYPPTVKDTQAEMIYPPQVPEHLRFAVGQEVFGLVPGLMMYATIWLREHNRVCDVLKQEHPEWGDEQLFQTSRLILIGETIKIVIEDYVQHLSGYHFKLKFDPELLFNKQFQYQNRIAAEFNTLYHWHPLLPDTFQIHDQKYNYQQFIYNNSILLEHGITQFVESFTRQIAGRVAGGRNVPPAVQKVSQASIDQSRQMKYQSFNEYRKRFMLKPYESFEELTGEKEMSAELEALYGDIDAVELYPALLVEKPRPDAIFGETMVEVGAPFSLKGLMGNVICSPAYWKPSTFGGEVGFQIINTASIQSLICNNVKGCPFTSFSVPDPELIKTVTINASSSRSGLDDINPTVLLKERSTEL
Experimental: (§1) The ability of the test compounds to inhibit (IC50 values, μM) human COX-1 and COX-2 (Cayman Chemical, Ann Arbor) is determined PGF2α, produced from COX reaction is measured by enzyme immunoassay. Either COX-1 or COX-2 enzyme in the presence of heme and various concentrations of test compound solutions (0.01-10 μM) is incubated after which substrate arachidonic acid is added. The concentration of the test compound causing 50% inhibition (IC50, μM) is calculated from the concentration-inhibition response curve.

human Lp-PLA2 = target: T2, human Lp-PLA2 (Homo sapiens, UniProt Q13093); test: Lp-PLA2 inhibition assay (UV-spectrometry, 2-thio-PAF/DTNB, 96-well)
T2 construct: purchased Cayman Chemical
T2 sequence (Q13093 22-441): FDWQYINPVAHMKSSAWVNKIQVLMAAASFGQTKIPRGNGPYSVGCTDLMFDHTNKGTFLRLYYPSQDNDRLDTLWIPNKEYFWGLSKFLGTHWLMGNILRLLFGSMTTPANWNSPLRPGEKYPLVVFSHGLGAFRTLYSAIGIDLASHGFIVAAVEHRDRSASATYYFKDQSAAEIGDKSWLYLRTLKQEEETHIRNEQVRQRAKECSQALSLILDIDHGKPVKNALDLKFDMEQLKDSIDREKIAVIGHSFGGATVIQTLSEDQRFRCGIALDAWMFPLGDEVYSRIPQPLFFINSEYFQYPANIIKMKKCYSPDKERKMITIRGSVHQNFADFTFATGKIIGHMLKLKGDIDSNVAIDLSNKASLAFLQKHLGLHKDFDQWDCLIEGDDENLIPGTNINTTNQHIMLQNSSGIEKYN
Experimental: The ability of synthesized indolizine derivatives (6) to inhibit (IC50 values, μM) human Lp-PLA2 (Cayman Chemical, Ann Arbor, Mich.) was determined based on a UV-spectrometry assay using 96-well plate format. […] The concentration of the test compound causing 50% inhibition (IC50, μM) was determined from the concentration-inhibition response curve (duplicate to quadruplicate determinations).
(§2) Phospholipase inhibition by synthesized compounds toward human Lp-PLA2, sPLA2 IIA and IV (Cayman Chemical Company, Ann Arbor, Mich.) are evaluated using a 96-well plate format. In this assay, different concentrations of test compounds (0.001-30 μM) are incubated with the PLA2 enzymes. The substrate hydrolysis by PLA2 is monitored by UV-spectroscopy. […] The concentration of the test compound causing 50% inhibition (IC50, μM) is determined from the concentration-inhibition response curve. Isothermal calorimetry (ITC) experiments using will be carried out to determine binding constant (KB) and dissociation constant (KD) of Lp-PLA2 inhibitors (Ann. Rev. Biophy. 37, 135-151, 2008; J. Am. Chem. Soc. 125, 10570-10579, 2003)]. Reference compounds (eg: varespladib and darapladib) will be used for comparison.

sPLA2 IIA = target: T3, sPLA2 IIA (Homo sapiens, UniProt P14555); test: Phospholipase A2 (PLA2) inhibition assay, sPLA2 IIA; conditions: Table 2; for Selectivity Index (sPLA2/Lp-PLA2): ratio of sPLA2 IIA IC50 to Lp-PLA2 IC50
T3 construct: purchased Cayman Chemical Company
T3 sequence (P14555 21-144): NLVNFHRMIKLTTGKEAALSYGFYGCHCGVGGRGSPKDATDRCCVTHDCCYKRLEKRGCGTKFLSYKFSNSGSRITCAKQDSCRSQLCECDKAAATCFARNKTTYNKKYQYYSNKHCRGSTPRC
Experimental: as §2

human COX-1 = target: T4, human COX-1 (Homo sapiens, UniProt P23219); test: Cyclooxygenase (COX) inhibition assay, COX-1 (enzyme immunoassay); conditions: Table 2
T4 construct: purchased Cayman Chemical
Experimental: as §1

[1] = Table 1, substrate 2-thio-PAF, DTNB, 0.1M Tris-HCl pH 7.2, read-out: Lp-PLA2 (IC50)
[2] = Table 2, read-out: Lp-PLA2 Inhibition (IC50)

T4 sequence (P23219 24-599): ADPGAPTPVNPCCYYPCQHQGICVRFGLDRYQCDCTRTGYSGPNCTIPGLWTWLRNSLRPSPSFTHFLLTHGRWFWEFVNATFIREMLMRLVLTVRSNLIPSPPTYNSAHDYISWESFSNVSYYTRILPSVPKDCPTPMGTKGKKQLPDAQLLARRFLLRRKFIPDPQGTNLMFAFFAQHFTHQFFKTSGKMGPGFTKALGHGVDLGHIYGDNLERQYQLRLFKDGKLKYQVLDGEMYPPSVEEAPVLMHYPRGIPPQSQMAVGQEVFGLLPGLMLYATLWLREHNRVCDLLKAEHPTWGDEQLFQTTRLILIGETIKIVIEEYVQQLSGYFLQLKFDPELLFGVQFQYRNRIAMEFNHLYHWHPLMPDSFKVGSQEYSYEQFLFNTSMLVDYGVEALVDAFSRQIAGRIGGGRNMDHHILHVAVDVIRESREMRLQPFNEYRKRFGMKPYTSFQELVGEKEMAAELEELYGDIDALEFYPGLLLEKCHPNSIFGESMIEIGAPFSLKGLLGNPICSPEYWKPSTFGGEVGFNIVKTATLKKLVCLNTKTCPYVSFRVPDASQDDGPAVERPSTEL

Which results are given for `CC(=O)c1c(-c2ccccc2)c(C(=O)c2ccccc2)c2ccccn12` [Cmpd 1]?
IC50 (human COX-2): > 10000 nM; IC50 (human Lp-PLA2; [1]): 510 nM; IC50 (human Lp-PLA2; [2]): 510 nM; IC50 (sPLA2 IIA): > 10000 nM; Selectivity Index (sPLA2/Lp-PLA2) (sPLA2 IIA): >19.6; IC50 (human COX-1): > 10000 nM

`CC(=O)c1c(-c2ccccc2)c(C(=O)c2ccc(C)cc2)c2ccccn12` [Cmpd 2, 1-[1-(4-methylbenzoyl)-2-phenylindolizin-3-yl]ethanone] was tested. Which IC50 (human COX-2) did it give?
Its IC50 is greater than 10000 nM.

What about the IC50 (human Lp-PLA2; [1]) of the same compound?
The IC50 was 30 nM.

And the IC50 (human Lp-PLA2; [2])?
The IC50 was 20 nM.

What about the IC50 (sPLA2 IIA) of the same compound?
Its IC50 is greater than 10000 nM.

And the “Selectivity Index (sPLA2/Lp-PLA2)” value (sPLA2 IIA)?
Its value is greater than 500.

What about the IC50 (human COX-1) of the same compound?
The IC50 was greater than 10000 nM.

How did the IC50 (human COX-2) turn out when `CC(=O)c1c(-c2ccccc2)c(C(=O)c2ccc(C(C)C)cc2)c2ccccn12` [Cmpd 3, 1-[1-(4-isopropylbenzoyl)-2-phenylindolizin-3-yl]ethanone] was run?
The IC50 was greater than 10000 nM.

And the IC50 (human Lp-PLA2; [1])?
Its IC50 is 800 nM.

What about the IC50 (human Lp-PLA2; [2]) of the same compound?
The IC50 was 800 nM.

What about the IC50 (sPLA2 IIA) of the same compound?
Its IC50 is greater than 10000 nM.

And the “Selectivity Index (sPLA2/Lp-PLA2)” value (sPLA2 IIA)?
The value was greater than 12.5.

And the IC50 (human COX-1)?
Its IC50 is greater than 10000 nM.

With `CCCCc1ccc(C(=O)c2c(-c3ccccc3)c(C(C)=O)n3ccccc23)cc1` [Cmpd 4] as the compound, how does the IC50 (human COX-2) read?
Its IC50 is greater than 10000 nM.

And the IC50 (human Lp-PLA2; [1])?
Its IC50 is 290 nM.

What about the IC50 (human Lp-PLA2; [2]) of the same compound?
Its IC50 is 300 nM.

And the IC50 (sPLA2 IIA)?
The IC50 was greater than 10000 nM.

And the “Selectivity Index (sPLA2/Lp-PLA2)” value (sPLA2 IIA)?
Its value is greater than 33.3.

What about the IC50 (human COX-1) of the same compound?
The IC50 was greater than 10000 nM.

How did the IC50 (human COX-2) turn out when `COc1ccc(C(=O)c2c(-c3ccccc3)c(C(C)=O)n3ccccc23)cc1` [Cmpd 5, 1-[1-(4-methoxybenzoyl)-2-phenylindolizin-3-yl]ethanone] was run?
The IC50 was greater than 10000 nM.

What about the IC50 (human Lp-PLA2; [1]) of the same compound?
Its IC50 is 760 nM.

What about the IC50 (human Lp-PLA2; [2]) of the same compound?
Its IC50 is 760 nM.

And the IC50 (sPLA2 IIA)?
The IC50 was greater than 10000 nM.

And the “Selectivity Index (sPLA2/Lp-PLA2)” value (sPLA2 IIA)?
Its value is greater than 13.1.

And the IC50 (human COX-1)?
Its IC50 is greater than 10000 nM.

For `CSc1ccc(C(=O)c2c(-c3ccccc3)c(C(C)=O)n3ccccc23)cc1` [Cmpd 6, 1-[1-(4-(methylthio)benzoyl)-2-phenylindolizin-3-yl]ethanone], which IC50 (human COX-2) is on record?
Its IC50 is greater than 10000 nM.

What about the IC50 (human Lp-PLA2; [1]) of the same compound?
The IC50 was 240 nM.

And the IC50 (human Lp-PLA2; [2])?
Its IC50 is 250 nM.

And the IC50 (sPLA2 IIA)?
Its IC50 is greater than 10000 nM.

And the “Selectivity Index (sPLA2/Lp-PLA2)” value (sPLA2 IIA)?
Its value is greater than 40.

And the IC50 (human COX-1)?
Its IC50 is greater than 10000 nM.

`CC(=O)c1c(-c2ccccc2)c(C(=O)c2ccc(C(F)(F)F)cc2)c2ccccn12` [Cmpd 7, 1-[2-phenyl-1-(4-(trifluoromethyl)benzoyl)indolizin-3-yl]ethanone] was tested. Which IC50 (human COX-2) did it give?
The IC50 was greater than 10000 nM.

And the IC50 (human Lp-PLA2; [1])?
Its IC50 is 60 nM.

And the IC50 (human Lp-PLA2; [2])?
Its IC50 is 60 nM.

And the IC50 (sPLA2 IIA)?
Its IC50 is greater than 10000 nM.

What about the “Selectivity Index (sPLA2/Lp-PLA2)” value (sPLA2 IIA) of the same compound?
The value was greater than 166.6.

And the IC50 (human COX-1)?
Its IC50 is greater than 10000 nM.

`CC(=O)c1c(-c2ccccc2)c(C(=O)c2ccc(F)cc2)c2ccccn12` [Cmpd 8, 1-[1-(4-fluorobenzoyl)-2-phenylindolizin-3-yl]ethanone] was tested. Which IC50 (human COX-2) did it give?
Its IC50 is greater than 10000 nM.

And the IC50 (human Lp-PLA2; [1])?
The IC50 was 250 nM.

What about the IC50 (human Lp-PLA2; [2]) of the same compound?
The IC50 was 570 nM.

And the IC50 (sPLA2 IIA)?
The IC50 was greater than 10000 nM.

And the “Selectivity Index (sPLA2/Lp-PLA2)” value (sPLA2 IIA)?
The value was greater than 17.5.

And the IC50 (human COX-1)?
The IC50 was greater than 10000 nM.

`CC(=O)c1c(-c2ccccc2)c(C(=O)c2ccc(Br)cc2)c2ccccn12` [Cmpd 9, 1-[1-(4-bromobenzoyl)-2-phenylindolizin-3-yl]ethanone] was tested. Which IC50 (human COX-2) did it give?
The IC50 was greater than 10000 nM.

And the IC50 (human Lp-PLA2; [1])?
Its IC50 is 940 nM.

What about the IC50 (human Lp-PLA2; [2]) of the same compound?
The IC50 was 700 nM.

And the IC50 (sPLA2 IIA)?
Its IC50 is greater than 10000 nM.

What about the “Selectivity Index (sPLA2/Lp-PLA2)” value (sPLA2 IIA) of the same compound?
The value was greater than 14.2.

What about the IC50 (human COX-1) of the same compound?
Its IC50 is greater than 10000 nM.

How did the IC50 (human COX-2) turn out when `CC(=O)c1c(-c2ccccc2)c(C(=O)c2ccc(Cl)cc2)c2ccccn12` [Cmpd 10, 1-[1-(4-chlorobenzoyl)-2-phenylindolizin-3-yl]ethanone] was run?
The IC50 was greater than 10000 nM.

And the IC50 (human Lp-PLA2; [1])?
The IC50 was 700 nM.

And the IC50 (human Lp-PLA2; [2])?
The IC50 was 940 nM.

And the IC50 (sPLA2 IIA)?
Its IC50 is greater than 10000 nM.

And the “Selectivity Index (sPLA2/Lp-PLA2)” value (sPLA2 IIA)?
Its value is greater than 10.6.

And the IC50 (human COX-1)?
The IC50 was greater than 10000 nM.

`CC(=O)c1c(-c2ccc(C)cc2)c(C(=O)c2ccccc2)c2ccccn12` [Cmpd 11, 1-[1-benzoyl-2-p-tolylindolizin-3-yl]ethanone] was tested. Which IC50 (human Lp-PLA2; [1]) did it give?
The IC50 was 20 nM.

`CC(=O)c1c(-c2ccccc2)c(C(=O)c2ccc(F)c(F)c2)c2ccccn12` [Cmpd 12, 1-[1-(3,4-difluorobenzoyl)-2-phenylindolizin-3-yl]ethanone] was tested. Which IC50 (human Lp-PLA2; [1]) did it give?
The IC50 was 790 nM.
